Assays:
[1] = tested on: Gram positive non-sporeforming bacteria; assay: Supplements added to culture media to control bacterial diversity (microscopy, 18 h); type: cell-based; parameters: key: “+++” marks the diversity of certain bacterial type in control; “+++++” indicates an increased diversity of bacterial type; conditions: 18 h of cultivation
Excerpt: (§1) We next studied, could we regulate bacterial diversity grown from the bio samples with different compounds including transcriptase inhibitors, protease inhibitors, recombinase/integrase inhibitors, nucleases.

Gram negative rods = assay: as above; type: cell-based; parameters: key: “+++” marks the diversity of certain bacterial type in control; “+++++” indicates an increased diversity of bacterial type; conditions: 18 h of cultivation
Excerpt: as §1

[2] = tested on: Gram positive sporeforming bacteria; assay: as above; type: cell-based; parameters: key: “+++” marks the diversity of certain bacterial type in control; “+++++” indicates an increased diversity of bacterial type; conditions: 18 h of cultivation
Excerpt: as §1

PP [3] = assay: Animals treated with amoxicillin regimens, decrease of PP count by 3log10 over 48 hours; type: in vivo; conditions: efficacy = decrease of PP count by 3log10 over 48 hours
Procedure: 25 animals were used (n=5 per group) and were treated with different concentrations of Amoxicillin according to the results obtained by proposed method from 3 different biosamples.
(§2) Efficacy was evaluated by the decrease of PP count by 3log10 over 48 hours.

Primary Pathogens = assay: Sensitivity of primary pathogens to antibiotics, standard serial microbroth-dilution method (Example 23); type: cell-based; conditions: for MIC: Pseudomonas aeruginosa
Excerpt: We used sputum from patients with different pulmonary infections. Pure bacterial culture of each microorganisms was obtained by routine microbiological methods, bacterial identification was done by MALDI-TOF analysis, microbial diversity of biosample was done by metagenomic analysis (16S RNA sequencing).
Primary pathogen was selected as a leading pathogen in each infection case, based on consultation with an independent doctors who have received a description of the clinical picture, microbiology and microbiology analyses. Sensitivity of PP to antibiotics was evaluated using a standard serial microbroth-dilution method.

PP [4] = assay: Neutropenic mouse pneumonia infected with biosamples, tobramycin treatment, decrease of PP count by 3log10 over 48 hours; type: in vivo, C57BL/6 mice; conditions: efficacy = decrease of PP count by 3log10 over 48 hours
Procedure: Next, using the same biosamples we infected mice modulating pneumonia. For that, adult C57BL/6 mice were rendered neutropenic by injecting cyclophosphamide subcutaneously 4 days before infection (150 mg/kg of body weight), 1 day before infection (100 mg/kg), and 1 day after infection (100 mg/kg). Mice were anesthetized with 2% isoflurane and orally instilled with biosample disluted in PBS. Briefly, nares were blocked, and mice aspirated 50 μL of the biosample into the lungs while being held vertically for 60 s. MIX was taken as a Cmax.
30 animals were used (n=10 per group) and were treated with different concentrations of tobramycin according to the results obtained by proposed method from 3 different biosamples.
as §2

PP in sputum biosamples = assay: Presence of PP growth in wells with different tobramycin concentrations; type: cell-based; parameters: key: “+”—presence of bacterial growth, antibiotic is ineffective; “−”—absence of bacterial growth, antibiotic is effective
Procedure: Next, biosamples were plated to the wells of 48 well plate filled with Columbia +Pept Meat Agar supplemented with tobramycin taken at different concentrations (we have taken MIC as equal to Cmax) and presence of PP growth was evaluated in each well in 24 h of growth.

C[C@H](Cn1cnc2c(N)ncnc21)OCP(=O)(O)O [Group 7]
+++: diversity of Gram negative rods (Gram negative rods; compound at 0.5 ug/mL) | diversity of Gram positive sporeforming bacteria ([2]; compound at 0.5 ug/mL)
+++++: diversity of Gram positive non-sporeforming bacteria ([1]; compound at 0.5 ug/mL)

C[C@H](Cn1cnc2c(N)ncnc21)OCP(=O)(O)O [Group 8]
+++: diversity of Gram negative rods (Gram negative rods; compound at 100 ug/mL) | diversity of Gram positive sporeforming bacteria ([2]; compound at 100 ug/mL)
+++++: diversity of Gram positive non-sporeforming bacteria ([1]; compound at 100 ug/mL)

Nc1nc([O-])c2ncn(COCCO)c2n1.[Na+] [Group 11]
+++++: diversity of Gram positive non-sporeforming bacteria ([1]; compound at 0.5 ug/mL)
+++: diversity of Gram negative rods (Gram negative rods; compound at 0.5 ug/mL) | diversity of Gram positive sporeforming bacteria ([2]; compound at 0.5 ug/mL)

Nc1nc([O-])c2ncn(COCCO)c2n1.[Na+] [Group 12]
+++++: diversity of Gram positive non-sporeforming bacteria ([1]; compound at 100 ug/mL)
+++: diversity of Gram negative rods (Gram negative rods; compound at 100 ug/mL) | diversity of Gram positive sporeforming bacteria ([2]; compound at 100 ug/mL)

NC[C@H]1O[C@H](O[C@H]2[C@H](O)[C@@H](O[C@H]3O[C@H](CO)[C@@H](O)[C@H](N)[C@H]3O)[C@H](N)C[C@@H]2N)[C@H](N)C[C@@H]1O [Tobramycin]
0/5: Number of animals to whom therapy was effective/number of animals per group (PP [3]; Group 2b, biosample #2, BID (highest INEFFECTIVE)) | Number of animals to whom therapy was effective/number of animals per group (PP [3]; Group 3b, biosample #3, QID (highest INEFFECTIVE)) | Number of animals to whom therapy was effective/number of animals per group (PP [4]; Group 1b, biosample #1, Cmax 1/100 (highest INEFFECTIVE)) | Number of animals to whom therapy was effective/number of animals per group (PP [4]; Group 2b, biosample #2, Cmax 1/10 (highest INEFFECTIVE)) | Number of animals to whom therapy was effective/number of animals per group (PP [4]; Group 3b, biosample #3, Cmax 1/10 (highest INEFFECTIVE))
2 µg/mL: MIC (Primary Pathogens; Biosample 1, P. aeruginosa)
+: Presence of bacterial growth in the wells (PP in sputum biosamples; Biosample 1 (PP P. aeruginosa), 1/100 Cmax, 24 h) | Presence of bacterial growth in the wells (PP in sputum biosamples; Biosample 2 (PP P. aeruginosa), 1/10 Cmax, 24 h) | Presence of bacterial growth in the wells (PP in sputum biosamples; Biosample 2 (PP P. aeruginosa), 1/100 Cmax, 24 h) | Presence of bacterial growth in the wells (PP in sputum biosamples; Biosample 2 (PP P. aeruginosa), ¼ Cmax, 24 h) | Presence of bacterial growth in the wells (PP in sputum biosamples; Biosample 2 (PP P. aeruginosa), ½ Cmax, 24 h) | Presence of bacterial growth in the wells (PP in sputum biosamples; Biosample 3 (PP P. aeruginosa), 1/10 Cmax, 24 h) | Presence of bacterial growth in the wells (PP in sputum biosamples; Biosample 3 (PP P. aeruginosa), 1/100 Cmax, 24 h)
S: Sensitivity (CLSI interpretation) (Primary Pathogens; Biosample 1, P. aeruginosa)
5/5: Number of animals to whom therapy was effective/number of animals per group (PP [3]; Group 1a, biosample #1, QID (lowest EFFECTIVE)) | Number of animals to whom therapy was effective/number of animals per group (PP [3]; Group 2a, biosample #2, TID (lowest EFFECTIVE)) | Number of animals to whom therapy was effective/number of animals per group (PP [3]; Group 3a, biosample #3, BID (lowest EFFECTIVE)) | Number of animals to whom therapy was effective/number of animals per group (PP [4]; Group 1a, biosample #1, Cmax 1/10 (lowest EFFECTIVE)) | Number of animals to whom therapy was effective/number of animals per group (PP [4]; Group 2a, biosample #2, Cmax 1/1 (lowest EFFECTIVE)) | Number of animals to whom therapy was effective/number of animals per group (PP [4]; Group 3a, biosample #3, Cmax 1/4 (lowest EFFECTIVE))
I: Sensitivity (CLSI interpretation) (Primary Pathogens; Biosample 2, P. aeruginosa) | Sensitivity (CLSI interpretation) (Primary Pathogens; Biosample 3, P. aeruginosa)
8 µg/mL: MIC (Primary Pathogens; Biosample 2, P. aeruginosa) | MIC (Primary Pathogens; Biosample 3, P. aeruginosa)
−: Presence of bacterial growth in the wells (PP in sputum biosamples; Biosample 1 (PP P. aeruginosa), 1/10 Cmax, 24 h) | Presence of bacterial growth in the wells (PP in sputum biosamples; Biosample 1 (PP P. aeruginosa), Cmax × 2, 24 h) | Presence of bacterial growth in the wells (PP in sputum biosamples; Biosample 1 (PP P. aeruginosa), Cmax × 10, 24 h) | Presence of bacterial growth in the wells (PP in sputum biosamples; Biosample 1 (PP P. aeruginosa), Cmax, 24 h) | Presence of bacterial growth in the wells (PP in sputum biosamples; Biosample 1 (PP P. aeruginosa), ¼ Cmax, 24 h) | Presence of bacterial growth in the wells (PP in sputum biosamples; Biosample 1 (PP P. aeruginosa), ½ Cmax, 24 h) | Presence of bacterial growth in the wells (PP in sputum biosamples; Biosample 2 (PP P. aeruginosa), Cmax × 2, 24 h) | Presence of bacterial growth in the wells (PP in sputum biosamples; Biosample 2 (PP P. aeruginosa), Cmax × 10, 24 h) | Presence of bacterial growth in the wells (PP in sputum biosamples; Biosample 2 (PP P. aeruginosa), Cmax, 24 h) | Presence of bacterial growth in the wells (PP in sputum biosamples; Biosample 3 (PP P. aeruginosa), Cmax × 2, 24 h) | Presence of bacterial growth in the wells (PP in sputum biosamples; Biosample 3 (PP P. aeruginosa), Cmax × 10, 24 h) | Presence of bacterial growth in the wells (PP in sputum biosamples; Biosample 3 (PP P. aeruginosa), Cmax, 24 h) | Presence of bacterial growth in the wells (PP in sputum biosamples; Biosample 3 (PP P. aeruginosa), ¼ Cmax, 24 h) | Presence of bacterial growth in the wells (PP in sputum biosamples; Biosample 3 (PP P. aeruginosa), ½ Cmax, 24 h)

Source: patent US20240182945A1, “PRODUCTS FOR REGULATION OF EUKARYOTIC AND MICROBIAL CELLS GROWTH” (priority 2021, published 2024)
